Laboratory results taken from patent US10813941B2, “Methods and compounds for treating malaria” (THE GEORGE WASHINGTON UNIVERSITY, A CONGRESSIONALLY …, priority 2016, dated 2020).
Read-outs that look alike come from different tables or passages of the source.

How the values were obtained:
P. falciparum 3D7 = assay: P. falciparum growth inhibition assay (PicoGreen, 72 h), strain 3D7; assay type: cell-based, Plasmodium falciparum
Excerpt: (§1) P. falciparum strains were obtained through the MR4 as part of the BEI Resources Repository, NIAID NIH (www.mr4.org): Plasmodium falciparum 3D7 (wild-type, WT), Plasmodium falciparum K1 (MRA-159; chloroquine and sulfadoxine-pyrimethamine resistant) deposited by D E Kyle, and Plasmodium falciparum IPC 5202 Battambang Cambodia 2011 (MRA-1240; chloroquine and artemisinin resistant) deposited by Didier Menard at the Institut Pasteur du Cambodge. The P. falciparum mutant containing increased levels of MEP pathway metabolites had1 (MRA-1257), and its compliment had1+PfHad1-GFP (MRA-1258), were generated in strain 3D7 as reported (BEI Resources; Guggisburg 2014). Parasites were cultured in a 2% suspension of human erythrocytes and RPMI 1640 (Sigma) medium supplemented with 27 mM sodium bicarbonate, 11 mM glucose, 5 mM HEPES, 1 mM sodium pyruvate, 0.37 mM hypoxanthine, 0.01 mM thymidine, 10 μg/ml gentamicin, and 0.5% albumax (Gibco) at 37° C., 5% O2/5% CO2/90% N2 atmosphere as previously described (Zhang 2011).
(§2) Asynchronous P. falciparum cultures were diluted to 1% parasitemia and were treated with FR900098 analogs at concentrations ranging from 0.25 ng/ml-100 μg/ml. Growth inhibition assays were performed in opaque 96-well plates at 100 μl culture volume. After 3 days, parasite growth was quantified by measuring DNA content using PicoGreen (Life Technologies), as described. Fluorescence was measured on a FLUOstar Omega microplate reader (BMG Labtech) at 485 nm excitation and 528 nm emission. Half maximal inhibitory concentration (IC50) values were calculated by nonlinear regression analysis using GraphPad Prism software. For isopentenyl pyrophosphate (IPP) (Echelon) rescue experiments, 250 μM IPP was added to the appropriate wells for the duration of the experiment.

P. falciparum 7G8 = assay: P. falciparum growth inhibition assay, strain 7G8; assay type: cell-based, Plasmodium falciparum; details: P. falciparum 7G8 (quinine, chloroquine, and pyrimethamine resistant), 72 h
Experimental: as §2

P. falciparum D6 = assay: P. falciparum growth inhibition assay, strain D6; assay type: cell-based, Plasmodium falciparum; details: P. falciparum D6 (mefloquine resistant), 72 h
Experimental: as §2

P. falciparum D10 = assay: P. falciparum growth inhibition assay, strain D10; assay type: cell-based, Plasmodium falciparum; details: P. falciparum D10 (mefloquine resistant), 72 h
Experimental: as §2

P. falciparum K1 = assay: P. falciparum growth inhibition assay, strain K1; assay type: cell-based, Plasmodium falciparum; details: P. falciparum K1 (chloroquine and sulfadoxine-pyrimethamine resistant), 72 h
Excerpt: as §1, with “Parasites were cultured in a 2% suspension of human erythrocytes and RPMI 1640 (Sigma) medium supplemented with 27 mM sodium bicarbonate, 11 mM glucose, 5 mM HEPES, 1 mM sodium pyruvate, 0.37 mM hypoxanthine, 0.01 mM thymidine, 10 μg/ml gentamicin, and 0.5% albumax (Gibco) at 37° C., 5% O2/5% CO2/90% N2 atmosphere as previously described (Zhang 2011).” left out
(§3) Asynchronous P. falciparum cultures were diluted to 1% parasitemia and were treated with FR900098 analogs at concentrations ranging from 0.25 ng/ml-100 μg/ml. […] After 3 days, parasite growth was quantified by measuring DNA content using PicoGreen (Life Technologies), as described. Fluorescence was measured on a FLUOstar Omega microplate reader (BMG Labtech) at 485 nm excitation and 528 nm emission. Half maximal inhibitory concentration (IC50) values were calculated by nonlinear regression analysis using GraphPad Prism software. […]

P. falciparum Battambang = assay: P. falciparum growth inhibition assay, strain Battambang; assay type: cell-based, Plasmodium falciparum; details: P. falciparum Battambang (chloroquine and artemisinin resistant), 72 h
Excerpt: as §1, with “Parasites were cultured in a 2% suspension of human erythrocytes and RPMI 1640 (Sigma) medium supplemented with 27 mM sodium bicarbonate, 11 mM glucose, 5 mM HEPES, 1 mM sodium pyruvate, 0.37 mM hypoxanthine, 0.01 mM thymidine, 10 μg/ml gentamicin, and 0.5% albumax (Gibco) at 37° C., 5% O2/5% CO2/90% N2 atmosphere as previously described (Zhang 2011).” left out
as §3

[1] = system: P. falciparum had1 (PfHad1 loss-of-function strain); assay: microbe, parasite or virus in culture; assay type: cell-based, Plasmodium falciparum
Excerpt: as §1, §2

P. falciparum strain 3D7 = assay: IPP rescue of growth inhibition; assay type: cell-based, Plasmodium falciparum; details: 250 μM IPP; RCB-185 1.2 nM-590.5 nM
Experimental: as §2

[2] = cited from earlier work
[3] = mouse, oral administration; cited from earlier work
[4] = rat, oral administration; cited from earlier work
P. falciparum = details: cited from earlier work
[5] = system: P. falciparum had1+HAD1-GFP; assay: P. falciparum growth inhibition assay, complemented strain had1+HAD1-GFP; assay type: cell-based, Plasmodium falciparum; details: had1 mutant supplied with WT copy of had1, FIG. 3 panel B
Excerpt: as §1, with “Parasites were cultured in a 2% suspension of human erythrocytes and RPMI 1640 (Sigma) medium supplemented with 27 mM sodium bicarbonate, 11 mM glucose, 5 mM HEPES, 1 mM sodium pyruvate, 0.37 mM hypoxanthine, 0.01 mM thymidine, 10 μg/ml gentamicin, and 0.5% albumax (Gibco) at 37° C., 5% O2/5% CO2/90% N2 atmosphere as previously described (Zhang 2011).” left out
as §3

[6] = system: MEP pathway in P. falciparum strain 3D7; assay: MEP pathway metabolite levels by LC-MS/MS; assay type: cell-based, Plasmodium falciparum; details: for reduction in MEcPP levels: 10 h
Experimental: P. falciparum strain 3D7 was cultured at 37° C. in 30 ml volumes in 100 mm tissue culture dishes (Techno Plastic Products) at 4% hematocrit until >8% parasitemia. […] Cultures were then lysed with 5% saponin, the parasite pellets washed with 1× phosphate-buffered saline (PBS), and the pellets stored at −80° C. Samples were extracted via addition of 600 μl of ice-cold extraction solvent [chloroform, methanol, and acetonitrile (2:1:1, v/v/v)] and two liquid nitrogen-cooled 3.2 mm stainless steel beads, followed by homogenization in the Tissue-Lyser II instrument (Qiagen, Valencia, Calif.) at 20 Hz for 5 min in a cold sample rack. Ice-cold water (600 μl) was added, and samples were homogenized for an additional 5 min at 20 Hz. After centrifugation (14,000 rcf at 4° C. for 5 min), the polar upper phase was aspirated and lyophilized. Dried samples were dissolved in 100 μl water and analyzed by LC-MS/MS.
The 4000QTRAP LC-MS/MS system (AB Sciex) was used in multiple-reaction monitoring (MRM) mode using negative ionization. The detailed instrument configuration and compound-dependent parameters for isoprenoid precursors were as previously described (Zhang 2011). LC separation prior to MRM detection was achieved by ion pair reverse-phase chromatography as described previously, with 10 mM tributylammonium acetate (pH 5.1-5.5) used as the ion pair reagent and the following modifications: (1) RP-hydro 100 mm×2.0 mm, 2.5 μm high performance liquid chromatography column (Phenomenex), (2) flow rate of 0.14 ml/min, (3) solvent A of 10 mM tributylammonium acetate in 5% methanol, (4) binary LC gradient (20% solvent B (100% methanol) from 0 to 2.5 min, 30% B for 12.5 min, 80% B for 5 min, and column equilibration at for 5 min), and (5) autosampler injection volume of 20 μl. For DOXP and MEcPP metabolites, one-way ANOVA was used to test for significance (VassarStats). A t-test was used to test for significance between UNT and 1× RCB-185 CDP-ME levels (VassarStats).

[7] = system: P. falciparum strain NF54 gametocytes; assay: Gametocyte assay (flow cytometry); assay type: cell-based, Plasmodium falciparum; details: 72 h, 5 μM to 0.001 μM
Experimental: The next day, the parasites were resuspended at 10% gametocytemia, and 2% hematocrit.
A 96-well plate was prepared with 2× concentration of RCB-185 ranging 10 μM to 0.002 μM in complete RPMI with 1% DMSO as well as a positive control, 65 nM epoxomicin, and a negative control, 1% DMSO. Percoll purified NF54 strain P. falciparum gametocytes were added to individual wells at 2% hematocrit and 10% parasitemia in a 1:1 dilution, resulting in a final 1% hematocrit and a two-fold dilution of RCB-185 for a final concentration range of 5 μM to 0.001 μM and a final 0.5% DMSO, 32.5 nM epoxomicin. The plate was gassed with 90% N2, 5% O2, 5% CO2 and incubated at 37° C. with compound for 72 h. Following incubation, cells were analyzed using flow cytomtetry as described below.
Cells were incubated at a final 0.1% hematocrit in 50 nM DiIC(1)5 with buffer containing 1.67 mg/ml glucose, 8 mg/mL NaCl, 8 mM Tris-Cl (pH 7.4) and incubated at 37° C. for 20-30 minutes prior to analysis on BD Accuri C6 flow cytometer. Uninfected RBCs and unstained P. falciparum infected RBCs were incubated with MitoProbe DiIC1(5) as controls to determine the threshold for MitoProbe DiIC1(5) (640 nm laser excitation and FL4 emission filter [675/25 nm]) positive, single, and intact cell populations. One-way ANOVA was used to test for significance between the three treatment groups (VassarStats).

P. berghei ANKA = assay: Mouse model of malaria, P. berghei asexual blood stages (luciferase); assay type: in vivo, Swiss Webster mice
Experimental: In vivo testing of RCB-185 against intraerythrocytic P. berghei parasites was performed by the Anti-Infectives Screening Core at NYU School of Medicine. Briefly, groups of 5-7 female Swiss Webster mice weighing 25-30 g were infected via intraperitoneal injection with 10^3 transgenic P. berghei ANKA that express a fusion GFP (mutant 3) and firefly luciferase (LucIAV) fusion under the control of the constitutive eeflaα promoter that is stably integrated into the 230p locus (PbGFP-Luccon). Two days post-infection, mice were treated by intraperitoneal injection with 50 mg/kg of the test compound RCB-185 or 20 mg/kg chloroquine or 2% methyl cellulose, 0.5% tween-80 as positive and vehicle controls, respectively. Treatment continued once a day for 5 days. At 7 days post-infection, mice were administered 2.5% isofluorane via a nose cone, and once anesthesized, were injected i.p. with 150 mg/kg of D-Luciferin Potassium-salt (Goldbio) dissolved in PBS. Mice were imaged 5-10 min after injection of luciferin with an IVIS 100 (Xenogen, Alameda, Calif.) and data acquisition and analysis were performed with Livinglmage (Xenogen) to quantify the level of infection. To test for significance between vehicle- and RCB-185-treated mice, a t-test was used (VassarStats).

[8] = Plasmodium falciparum, P. falciparum 3D7 (pan-sensitive, lab adapted), asynchronous, 72 h, mean±SEM

## O=CN(O)CCCP(=O)(O)O [FSM, fosmidomycin, reference compound]
P. falciparum 3D7; [8]
  IC50: 1020 ± 77.8 nM
P. falciparum 3D7; Plasmodium falciparum, parent strain 3D7 (WT) in had1 comparison, FIG. 3, mean±SEM
  IC50: 1160 ± 158 nM
P. falciparum 7G8; Plasmodium falciparum
  IC50: 1240 ± 189 nM
P. falciparum D6; Plasmodium falciparum
  IC50: 1340 ± 247 nM
P. falciparum D10; Plasmodium falciparum
  IC50: 2180 ± 353 nM
P. falciparum K1; Plasmodium falciparum
  IC50: 837 ± 141 nM
P. falciparum Battambang; Plasmodium falciparum
  IC50: 863 ± 248 nM
[1]; Plasmodium falciparum
  IC50: 5350 ± 831 nM
P. falciparum strain 3D7
  rescue of growth by IPP: rescues
[2]; in vivo
  serum half-life: 1.87 h
[2]; oral dosing
  bioavailability: 20-40%
[3]
  LD50: > 11,000 mg/kg
[4]
  LD50: > 11,000 mg/kg
P. falciparum; human, in vivo
  tolerability in human patients: well-tolerated
P. falciparum; mean±standard deviation
  parasite clearance: 44 ± 18 h

## CC(=O)N(O)C/C=C/P(=O)(OCOC(=O)C(C)(C)C)OCOC(=O)C(C)(C)C [RCB-185]
P. falciparum 3D7; 3D7, RCB-185 versus FSM
  fold lower IC50 than FSM: 50 fold
P. falciparum 3D7; P. falciparum 3D7 (pan-sensitive, lab adapted), asynchronous, 72 h, mean±SEM
  IC50: 18.3 ± 1.9 nM
P. falciparum 3D7; parent strain 3D7 (WT) in had1 comparison, FIG. 3, mean±SEM
  IC50: 19.9 ± 4.2 nM
P. falciparum 7G8
  IC50: 46.7 ± 10.9 nM
P. falciparum D6
  IC50: 37.6 ± 10 nM
P. falciparum D10
  IC50: 42.5 ± 11.5 nM
P. falciparum K1
  IC50: 31.9 ± 1 nM
P. falciparum Battambang
  IC50: 21.1 ± 1.8 nM
[1]; had1 IC50 versus WT IC50
  fold more resistant, had1 versus WT parasites: 3.8 fold
[1]; had1 mutant (FSM-resistant), FIG. 3, mean±SEM, read-out: IC50
  IC50: 76.5 ± 18.5 nM
[5]
  IC50: 26 ± 6.4 nM
P. falciparum strain 3D7
  rescue of growth by IPP: supports growth of P. falciparum treated with RCB-185 at all concentrations tested
[6]; 1× the IC50 value of 18.3 nM
  reduction in MEcPP levels: 3.0 fold
[6]; 7.5× the IC50 value of 18.3 nM
  reduction in MEcPP levels: 5.7 fold
[6]; 10 h treatment, 1× or 7.5× IC50
  DOXP levels versus untreated: no significant difference
[6]; 10 h treatment, limit of detection 1.25 ng/mL
  CDP-ME levels: below the limits of detection
[6]; 10 h treatment, limit of detection 12.5 ng/ml
  MEP levels: below the limits of detection
[7]
  killing of gametocytes: failure of RCB-185 to kill gametocytes
P. berghei ANKA; 50 mg/kg i.p. once a day
  adverse effects in mice: no adverse effects were observed
P. berghei ANKA; 50 mg/kg i.p. once a day, luciferase signal 7 days post-infection
  drop in parasite load compared to vehicle: > 3 log

## C[C@@H]1CC[C@H]2[C@@H](C)C(=O)O[C@@H]3O[C@@]4(C)CC[C@@H]1[C@]32OO4 [artemisinin, reference compound]
P. falciparum 3D7; [8]
  IC50: 10.4 ± 1.6 nM

## CCN(CC)CCCC(C)Nc1ccnc2cc(Cl)ccc12 (stereo not shown) [chloroquine, reference compound]
P. berghei ANKA; 20 mg/kg i.p. once a day, 7 days post-infection
  luciferase signal (parasite burden): below the limit of detection
